# What was measured:
# [1] = system: HSC-39; assay: Apoptosis of human undifferentiated gastric cancer cell line (PARP / caspase-3 fragmentation, western blotting); format: cell-based; settings: 1 μM, HSC-39, one or three days (FIG. 2)
# Procedure: Human undifferentiated gastric cancer cell line HSC-39 (purchased from Immuno-Biological Laboratories) was suspended in an RPMI1640 medium (purchased from Sigma) containing 10% FBS. Five mL of the cell suspension (4×10^5 cells/mL) was placed into a […] (purchased from FALCON). To this, 5 mL of the test substance 4-(3-chloro-4-(cyclopropylaminocarbonyl)aminophenoxy)-7-methoxy-6-quinolinecarboxamide (methanesulfonate) diluted in an RPMI1640 medium containing 10% FBS was added and cultured in a 5% CO2 incubator (37° C.) for one or three days. The culture solution was collected and each flask was washed with 5 mL PBS. The mixture of the collected culture solution and the washing solution was centrifuged at 1,000 rpm, at 4° C. for 5 minutes. For precipitation, 100 μL of a lysis buffer (50 mM Hepes (pH 7.4), 150 mM NaCl, 10% (v/v) glycerol, 1% Triton X-100, 1.5 mM MgCl2, 1 mM EDTA (pH 8.0), 100 mM NaF, 1 mM PMSF, 10 μg/mL Aprotinin, 50 μg/mL Leupeptin, 1 μg/mL Pepstatin A, 1 mM Na3VO4) was added to solubilize the cells. This solution was collected and centrifugated at 15,000 rpm, at 4° C. for 15 minutes. An SDS buffer was added to the supernatant to prepare a 25 μg/15 μL solution and the resultant was treated at 94° C. for 5 minutes to solubilize the protein, which was prepared as a cell sample solution. […]
# [2] = target: T1, FGFR2 recombinant protein (Homo sapiens, UniProt P21802); assay: FGFR2 kinase inhibitory activity (cell free kinase assay, Upstate); format: biochemical; settings: poly(Glu, Tyr)4:1 substrate, [γ-33P]-ATP, 40 minutes at room temperature
# T1 construct: purchased Upstate (UK)
# T1 sequence (P21802 22-821): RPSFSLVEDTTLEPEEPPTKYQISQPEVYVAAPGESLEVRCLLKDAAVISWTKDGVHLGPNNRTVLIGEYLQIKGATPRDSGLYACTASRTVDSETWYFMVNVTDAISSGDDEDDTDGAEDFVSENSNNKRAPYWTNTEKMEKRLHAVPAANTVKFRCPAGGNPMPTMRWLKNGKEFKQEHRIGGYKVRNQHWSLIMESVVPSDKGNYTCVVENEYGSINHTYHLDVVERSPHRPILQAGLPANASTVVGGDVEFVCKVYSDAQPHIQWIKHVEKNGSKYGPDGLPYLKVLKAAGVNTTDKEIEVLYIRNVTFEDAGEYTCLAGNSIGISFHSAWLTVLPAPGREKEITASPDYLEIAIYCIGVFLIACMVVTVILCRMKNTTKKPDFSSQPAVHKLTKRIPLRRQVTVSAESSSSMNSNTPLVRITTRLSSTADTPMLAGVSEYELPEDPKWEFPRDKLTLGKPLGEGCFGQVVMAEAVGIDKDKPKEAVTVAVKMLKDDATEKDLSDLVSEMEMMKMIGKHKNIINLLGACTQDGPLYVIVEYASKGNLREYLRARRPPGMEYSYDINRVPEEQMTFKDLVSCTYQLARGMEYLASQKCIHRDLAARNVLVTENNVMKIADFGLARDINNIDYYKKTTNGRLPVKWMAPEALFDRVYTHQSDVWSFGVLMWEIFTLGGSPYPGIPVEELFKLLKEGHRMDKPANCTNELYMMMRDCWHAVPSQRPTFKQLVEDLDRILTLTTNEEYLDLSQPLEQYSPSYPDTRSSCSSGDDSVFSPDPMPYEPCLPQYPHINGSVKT
# Procedure: Specifically, the FGFR2 kinase inhibitory activity was measured as follows.
# MgATP was added to 25 μL of solution containing 5-10 mU of FGFR2 recombinant protein, 8 mM MOPS (pH 7.0), 0.2 mM EDTA, 2.5 mM MnCl2, 0.1 mg/ml poly (Glu, Tyr)4:1, 10 mM Mg Acetate, 500 cpm/mol [γ-^33P]-ATP and a test substance to initiate reaction.
# Following 40 minutes of reaction at room temperature, 5 μL of 3% phosphoric acid was added to terminate the reaction. 10 μL of the reaction solution was spotted on Filtermat A, which was washed with 75 mM phosphoric acid for five times and once with ethanol and then dried. The radioactivity of the spot was determined (measured).
# In this regard, a value obtained when substrate Poly(Glu, Tyr)4:1 was contained but not the FGFR2 recombinant protein was assumed 0% value while a value obtained when the FGFR2 recombinant protein and substrate Poly(Glu, Tyr)4:1 were contained but not the test substance was assumed 100% value.
# The kinase activity in the presence of the test substance at each concentration was calculated as percentage of the value obtained by subtracting the 0% value from each radioactivity value to the value obtained by subtracting the 0% value from the 100% value.
# [3] = system: SNU-16; assay: Anti-tumor effect, subcutaneous transplanted (xenograft) model; format: in vivo, nude mice; settings: SNU-16 xenograft, oral 1, 3, 10, 30 or 100 mg/kg once a day, four-weeks schedule (FIG. 3)
# Procedure: (§1) Human undifferentiated gastric cancer cell lines (KATO-III (purchased from ATCC)), SNU-16 (purchased from ATCC) and HSC-39 (purchased from Immuno-Biological Laboratories) were cultured with RPMI1640 (containing 10% FBS) in a 5% CO2 incubator at 37° C. The cells were collected with trypsin-EDTA according to a conventional method. The cells were suspended in a phosphate buffer to prepare a 5×10^7 cells/mL suspension. Each 0.1 mL of the resulting cell suspensions was subcutaneously transplanted into the side of body of nude mice (purchased from Charles River). Following transplantation, the test substance 4-(3-chloro-4-(cyclopropylaminocarbonyl)aminophenoxy)-7-methoxy-6-quinolinecarboxamide (methanesulfonate) dissolved in distilled water for injection (purchased from Otsuka Pharmaceutical) was orally administered at 1, 3, 10, 30 or 100 mg/kg once a day on a four-weeks schedule (except for KATO-III, 30 or 100 mg/kg, once a day, two-weeks schedule) once the tumor volume became (reached) about 100-200 mm^3. The major and minor axes of tumors were measured with Digimatic caliper (Mitsutoyo), and tumor volumes were calculated according to the following formulae. Tumor Volume (TV)=Major axis of tumor (mm)×(Minor axis of tumor)^2 (mm^2)/2
# [4] = system: KATO-III; assay: as above; format: in vivo, nude mice; settings: oral 30 or 100 mg/kg once a day, two-weeks schedule (FIG. 3)
# Procedure: as §1
# [5] = system: HSC-39; assay: as above; format: in vivo, nude mice; settings: HSC-39 xenograft, oral 1, 3, 10, 30 or 100 mg/kg once a day, four-weeks schedule (FIG. 3)
# Procedure: as §1
# [6] = system: FGFR2; assay: FGFR2 phosphorylation in tumor tissues of subcutaneous transplanted (xenograft) models; format: in vivo, nude mice; settings: SNU-16 and HSC-39 xenografts, oral 10, 30 or 100 mg/kg, tumors removed two hours after administration (FIG. 4)
# Procedure: Human undifferentiated gastric cancer cell lines (SNU-16 (purchased from ATCC) and HSC-39 (purchased from Immuno-Biological Laboratories) were cultured with RPMI1640 (containing 10% FBS) in a 5% CO2 incubator (37° C.) and cells were collected with trypsin-EDTA according to a conventional method. The cells were suspended in a phosphate buffer to prepare a 5×10^7 cells/mL suspension. Each 0.1 mL of the resulting cell suspensions was subcutaneously transplanted into the side of body of nude mice (purchased from Charles River).
# Following transplantation, the test substance 4-(3-chloro-4-(cyclopropylaminocarbonyl)aminophenoxy)-7-methoxy-6-quinolinecarboxamide (methanesulfonate) dissolved in distilled water for injection (purchased from Otsuka Pharmaceutical) was orally administered at 10, 30 or 100 mg/kg once the tumor volume became (reached) about 400-800 mm^3. Tumors were removed two hours after the administration, to which a lysis buffer (50 mM Hepes (pH 7.4), 150 mM NaCl, 10% (v/v) glycerol, 1% TritonX-100, 1.5 mM MgCl2, 1 mM EDTA (pH 8.0), 100 mM NaF, 1 mM PMSF, 10 μg/mL Aprotinin, 50 μg/mL Leupeptin, 1 μg/mL Pepstatin A, 1 mM Na3VO4) and 25 mM β-glycerophosphate and phosphatase inhibitor cocktail II (SIGMA)) was added for homogenization. The resultant was centrifugated at 15,000 rpm, at 4° C. for 15 minutes. 1000 μg/500 μL of The supernatant was prepared as a tumor extract. […]
# [7] = system: FGFR2; assay: FGFR2 phosphorylation in human undifferentiated gastric cancer cell lines (immunoprecipitation, western blotting); format: cell-based; settings: 1 μM, one hour; KATO-III, SNU-16 and HSC-39 cells (FIG. 1)
# Procedure: Human undifferentiated gastric cancer cell lines (KATO-III (purchased from ATCC)), SNU-16 (purchased from ATCC) and HSC-39 (purchased from Immuno-Biological Laboratories)) were suspended in RPMI1640 media (purchased from Sigma) containing 10% FBS (fetal bovine serum). KATO-III, SNU-16 and HSC-39 are cells showing FGFR2 gene amplification (Laboratory Investigation, 78, 1143-1153, 1998), and are also known as scirrhous gastric cancer cell lines. Each 10 mL of the cell suspensions (5×10^5 cells/mL) was placed into a 75 cm^2 cell culture flask (purchased from FALCON) and cultured in a 5% CO2 incubator (37° C.) overnight. In the case of KATO-III, the medium was replaced by an RMPI1640 medium containing 1% FBS. To this, 10 mL of the test substance 4-(3-chloro-4-(cyclopropylaminocarbonyl)aminophenoxy)-7-methoxy-6-quinolinecarboxamide (methanesulfonate) diluted in RPMI1640 containing 1% or 10% FBS was added and cultured in a 5% CO2 incubator (37° C.) for an hour. The culture solution was collected, each flask was washed with 5 mL PBS, and the mixture of the collected culture and the washing solution was centrifuged at 1,000 rpm, at 4° C. for 5 minutes. […]
# [8] = system: SNU-16; assay: Cell proliferation, Cell Counting Kit-8; format: cell-based; settings: Homo sapiens, 72 h; SNU-16, 10% FBS, three days; read-out: inhibition of cell proliferation IC50
# Procedure: (§2) Human undifferentiated gastric cancer cell lines (KATO-III (purchased from ATCC)), SNU-16 (purchased from ATCC) and HSC-39 (purchased from Immuno-Biological Laboratories)) were suspended in RPMI1640 media (purchased from Sigma) containing 10% FBS except that KATO-III was suspended in an RMPI1640 medium containing 1% FBS. The cell suspensions (KATO-III: 6×10^4 cells/mL; SNU-16 and HSC-39: 2×10^4 cells/mL) were placed into a 96-well cell culture plate (purchased from NUNC) at 0.1 mL/well and cultured in a 5% CO2 incubator (37° C.) overnight. Following cultivation, 0.1 mL of the test substance 4-(3-chloro-4-(cyclopropylaminocarbonyl)aminophenoxy)-7-methoxy-6-quinolinecarboxamide (methanesulfonate) diluted in an RPMI1640 medium containing 1% or 10% FBS was added to each well and further cultured in a 5% CO2 incubator (37° C.) for three days. Following cultivation, 20 μL of Cell Counting Kit-8 (purchased from DOJINDO) was added to each well and allowed to develop color in a 5% CO2 incubator (37° C.) to determine (measure) the absorbance of each well by using a plate reader MTP-500 (Corona Electric) at a measurement wavelength of 450 nm and a reference wavelength of 660 nm.
# [9] = system: KATO-III; assay: Cell proliferation, Cell Counting Kit-8; format: cell-based; settings: Homo sapiens, 72 h, 1% FBS, three days, read-out: inhibition of cell proliferation IC50
# Procedure: as §2
# [10] = system: HSC-39; assay: Cell proliferation, Cell Counting Kit-8; format: cell-based; settings: Homo sapiens, 72 h; HSC-39, 10% FBS, three days; read-out: inhibition of cell proliferation IC50
# Procedure: as §2
smiles,measurement,setting,value
COc1cc2nccc(Oc3ccc(NC(=O)NC4CC4)c(Cl)c3)c2cc1C(N)=O [4-(3-chloro-4-(cyclopropylaminocarbonyl)aminophenoxy)-7-methoxy-6-quinolinecarboxamide],cleaved-PARP,[1],clearly detected
same,cleaved-caspase-3,[1],clearly detected
same,IC50,[2],< 10 nM
same,anti-tumor effect (tumor volume),[3],dose-dependent anti-tumor effect
same,anti-tumor effect (tumor volume),[4],dose-dependent anti-tumor effect
same,anti-tumor effect (tumor volume),[5],dose-dependent anti-tumor effect
same,phosphorylation of FGFR2 in tumor,[6],inhibit phosphorylation of FGFR2
same,phosphorylation of FGFR2,[7],almost completely inhibited
same,IC50,[8],251 nM
same,IC50,[9],141 nM
same,IC50,[10],157 nM
